Experimental data as given in patent US5932580A, “PDGF receptor kinase inhibitory compounds their preparation and compositions” (priority 1997, dated 1999).
pIC50: −log10 of the molar value. “Also recorded” adds a separate entry of the source. Like-named read-outs stand apart in the source and are kept apart here.

What was measured:
neointimal formation = conditions: controlled local delivery; rat carotid balloon injury model; cited from earlier work
[1] = tested on: human internal mammary artery smooth muscle cells (IMA SMC); test: Inhibition of cell proliferation and recovery, human IMA SMC; format: cell-based
Description: (§1) Smooth muscle cells (SMC) were obtained under aseptic conditions from porcine abdominal aortas, and human internal mammary arteries (IMA). Specimens from the operating room were transferred on ice to the tissue culture room. Each artery was cut open and the endothelial surface mechanically scraped. The vessels were then cut into 2 mm^2 fragments which were placed in culture dishes with Dulbecco's modified Eagle's medium (DMEM) supplemented with 15% (v/v) fetal calf serum (FCS), 100 u/ml penicillin, 100 μg/ml streptomycin, and 0.2M L-glutamine. The tissue fragments were then placed in an incubator at 37° C. under 9% CO2 atmosphere until SMC outgrowth was detected (typically within 3-7 days). […] For experiments testing the effect of tyrphostins on growth inhibition and recovery (see below), SMC from passages 1-3 were replated in 15 mm wells pretreated with 3 μg/cm^2 fibronectin (Biological Industries, Kibbutz Beit Haemek, Israel) at 15,000 cells/well.
Inhibition of cell proliferation and recovery: Monolayer cell growth inhibition and recovery experiments were repeated 3 or 4 times. Each experiment was performed in triplicate. Approximately 15,000 cells (SMC or EC) in 1 ml of culture medium supplemented with 15% FCS were seeded on day 0 in 15 mm-wells precoated with fibronectin. Cultures were treated with a tyrphostin (10 μM) dissolved in 0.1% DMSO on days 1 and 3. On day 6, cultures were washed and the cells allowed to recover. Typically cells were counted on days 3 and 5 for inhibition, and on days 7, 10 and 15 for recovery, other schedules were also employed as reported below. The medium supplemented with serum (M-199 with ECGS for EC, and DMEM for SMC) was changed every other day throughout the experiment.
FIG. 9 presents the maximal inhibitory and recovery effects on human IMA SMC growth inflicted by 10 or 25 μM of AG1851 and AG1295. Cells were grown in the presence of the specified tyrphostins and were counted after seven days in culture. On day 7 the cultures were washed and the cells allowed to recover. Seven days later they were counted for recovery. The bar graph show the maximal inhibition and the recovery in each experiment and for controls.

[2] = tested on: epidermal growth factor receptor; conditions: cited from earlier work
[3] = tested on: porcine aortic smooth muscle cells (SMC); test: Inhibition of cell proliferation and recovery, porcine SMC; format: cell-based; conditions: for inhibition at 10 µM: Sus scrofa
Protocol: as §1, with “The vessels were then cut into 2 mm^2 fragments which were placed in culture dishes with Dulbecco's modified Eagle's medium (DMEM) supplemented with 15% (v/v) fetal calf serum (FCS), 100 u/ml penicillin, 100 μg/ml streptomycin, and 0.2M L-glutamine.” left out
(§2) Inhibition of cell proliferation and recovery: Monolayer cell growth inhibition and recovery experiments were repeated 3 or 4 times. Each experiment was performed in triplicate. […] Cultures were treated with a tyrphostin (10 μM) dissolved in 0.1% DMSO on days 1 and 3. On day 6, cultures were washed and the cells allowed to recover. Typically cells were counted on days 3 and 5 for inhibition, and on days 7, 10 and 15 for recovery, other schedules were also employed as reported below.

[4] = tested on: DNA synthesis stimulated by insulin, by epidermal growth factor, or by a combination of both; conditions: cited from earlier work
[5] = tested on: porcine endothelial cells (EC); test: Inhibition of cell proliferation and recovery, porcine EC; format: cell-based; conditions: for inhibition at 10 µM: Sus scrofa, Endothelial cell
Description: Endothelial cells (EC) were isolated from porcine carotid arteries. Using aseptic procedure, both common carotid arteries were isolated, and the distal end of each artery was cannulated through an arteriotomy and ligated. The arteries were then perfused with phosphate buffered saline (PBS) and the proximal end ligated isolating a 5-7 cm long blood-free portion of the artery. The isolated portion of each artery was filled with PBS containing calcium and magnesium and 0.1% collagenase (Boehringer Manneheim, Germany). The segments were excised and incubated for 10 min at 37° C. in sterile bottles containing PBS. […] Cells were seeded on fibronectin-coated dishes at a seeding density of 15,000 cells/well and incubated at 37° C. in 9% CO2. ECGS (25 μg/ml) was added every other day until confluence was observed, typically within 6-8 days.
as §2

Swiss 3T3 cells = conditions: read-out: 50% inhibitory concentration, PDGF receptor kinase and PDGF dependent DNA synthesis; cited from earlier work
[6] = tested on: fibroblast growth factor-dependent DNA synthesis; conditions: relative to PDGF dependent DNA synthesis; cited from earlier work
PDGF β-receptor = target: T1, PDGF β-receptor (Sus scrofa, UniProt F1RL75); test: PDGF induced PDGFR autophosphorylation in intact SMC cells; format: cell-based; conditions: porcine arterial SMC
T1 construct: PDGF-BB stimulated; immunoprecipitated with PDGF beta-receptor specific antiserum R3
T1 sequence (F1RL75 109-1181): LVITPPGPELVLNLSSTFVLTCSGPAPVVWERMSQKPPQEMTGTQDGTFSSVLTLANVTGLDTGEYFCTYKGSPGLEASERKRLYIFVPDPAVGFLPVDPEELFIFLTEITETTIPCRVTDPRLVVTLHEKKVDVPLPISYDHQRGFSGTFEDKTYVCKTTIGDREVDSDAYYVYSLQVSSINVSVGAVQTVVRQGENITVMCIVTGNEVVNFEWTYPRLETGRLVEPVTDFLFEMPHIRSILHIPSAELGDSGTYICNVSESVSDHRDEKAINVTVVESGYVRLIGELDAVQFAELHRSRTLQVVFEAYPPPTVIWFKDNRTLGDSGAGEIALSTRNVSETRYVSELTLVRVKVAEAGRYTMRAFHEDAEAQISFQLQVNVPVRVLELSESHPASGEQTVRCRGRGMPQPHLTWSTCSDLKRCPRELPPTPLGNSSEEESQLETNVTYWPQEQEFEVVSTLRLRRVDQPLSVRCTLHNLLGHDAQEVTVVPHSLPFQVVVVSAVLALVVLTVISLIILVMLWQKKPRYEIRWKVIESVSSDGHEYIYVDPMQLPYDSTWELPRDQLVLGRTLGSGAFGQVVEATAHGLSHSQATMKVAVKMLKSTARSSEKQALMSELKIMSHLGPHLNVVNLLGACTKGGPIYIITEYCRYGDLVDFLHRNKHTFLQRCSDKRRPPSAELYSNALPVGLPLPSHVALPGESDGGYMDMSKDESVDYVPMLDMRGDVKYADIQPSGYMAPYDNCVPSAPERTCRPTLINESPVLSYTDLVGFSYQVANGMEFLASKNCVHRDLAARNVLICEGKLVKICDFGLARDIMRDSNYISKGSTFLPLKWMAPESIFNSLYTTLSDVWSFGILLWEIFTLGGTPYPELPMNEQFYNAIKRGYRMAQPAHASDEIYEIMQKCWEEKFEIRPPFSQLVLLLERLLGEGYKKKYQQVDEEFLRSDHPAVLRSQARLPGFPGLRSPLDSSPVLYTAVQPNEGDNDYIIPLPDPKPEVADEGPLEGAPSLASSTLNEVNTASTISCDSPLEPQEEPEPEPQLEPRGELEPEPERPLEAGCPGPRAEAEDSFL
Protocol: Effect of tyrphostins on PDGF induced PDGFR autophosphorylation in intact SMC cells: Subconfluent porcine arterial smooth muscle cells, cultivated in Dulbecco's modified Eagle's medium (DMEM) supplemented with 15% fetal calf serum (FCS), were synchronized for 20 hours in a medium containing 2% FCS. […] After stimulation, the cells were solubilized in Nonidet P-40 (1%) containing lysis buffer.
The analysis of PDGF p-receptor phosphorylation was performed as follows. Cell lysates were subjected to immunoprecipitation using the PDGF β-receptor specific antiserum R3 [5]. The percipitates were subjected to polyacrylamide (7.5%) gel electrophoresis in presence of sodium deducyl sulfate (SDS-PAGE) and were thereafter blotted onto a nitrocellulose membrane (Hybond C-EXTRA, Amersham). Phosphorylated proteins were detected by immunoblotting using the horseradish-peroxidase conjugated phosphotyrosine antibody RC20H (Transduction Laboratories), followed by chemoluminescence-based detection (ECL, Amersham) and autoradiography.
Detection of receptor proteins was performed as follows. Cell lysates were subjected to immunoprecipitation using the PDGF β-receptor specific antiserum R3 [5], as described above, and the percipitates washed three times and thereafter subjected to SDS-PAGE (7.5%) and blotting onto a nitrocellulose membrane (Hybond C-EXTRA, Amersham). Receptor proteins were detected by immunoblotting using the horseradish-peroxidase conjugated donkey anti-rabbit antibody (Amersham), followed by chemoluminescence-based detection (ECL, Amersham) and autoradiography.

[7] = tested on: porcine aorta endothelial cells (EC); conditions: read-out: 50% inhibitory concentration, PDGF receptor kinase and PDGF dependent DNA synthesis; cited from earlier work
human PDGF α-receptor = conditions: cited from earlier work
[8] = tested on: stem cell factor receptor (c-Kit); conditions: cited from earlier work
p60c-src(F527) = conditions: cited from earlier work
[9] = tested on: porcine aortic endothelial cells; conditions: cited from earlier work
[10] = tested on: vascular endothelial growth factor receptor KDR; conditions: cited from earlier work
[11] = tested on: src-transformed NIH 3T3 cells; conditions: cited from earlier work
human PDGF β-receptor = conditions: cited from earlier work
[12] = tested on: sis-transfected NIH 3T3 cells; conditions: cited from earlier work

CC(C)(C)c1cc(C=C(C#N)C#N)cc(C(C)(C)C)c1O [AG17]
inhibition of neointimal formation (neointimal formation): effectively inhibits neointimal formation

Cc1cc2ncc(-c3ccccc3)nc2cc1C [AG1295, reference compound]
reversibility of the effect on IMA SMC upon removal of the tyrphostin ([1]; 25 μM): completely reversible | inhibition at 25 µM ([1]; Homo sapiens, 120 h, read-out: mean reduction / inhibition of IMA SMC proliferation compared to untreated or DMSO-treated cells): 48% | effect on epidermal growth factor receptor autophosphorylation [2]: no effect | inhibitory effect on porcine SMC growth (in words) ([3]; 10 μM, FIGS. 3-7): very potent growth inhibition effect; also recorded: highly effective in blocking proliferation; also recorded: very effective proliferation inhibitors | toxicity on SMC ([3]; 10 μM, porcine SMC): low lasting toxicity | inhibition at 10 µM ([3]; 72 h, read-out: mean reduction in SMC count compared to DMSO treated control cells, 10 μM, by day 3): 46% | inhibition at 10 µM ([3]; 120 h, read-out: reduction in SMC count / inhibition of SMC growth over control, 10 μM, by day 5 (day given for AG1295 and AG1992)): 78% | inhibition at 10 µM ([3]; read-out: maximal inhibitory effect on porcine SMC proliferation, FIG. 6 experiment, 10 μM): 65% | inhibition at 10 µM ([3]; read-out: maximal inhibitory effect on porcine SMC proliferation, FIG. 7 experiment, 10 μM): 81% | inhibition at 10 µM ([3]; read-out: mean reduction in SMC count compared to control cells (maximal inhibition in SMC growth), Table 2, 10 μM): 78% | reversibility of the inhibitory effect / recovery of SMC growth after washout ([3]; porcine SMC, cultures washed, cells allowed to recover): completely reversible | effect on DNA synthesis stimulated by insulin, by epidermal growth factor, or by a combination of both [4]: weak effects | reversibility of the inhibitory effect on EC [5]: completely reversible | inhibition at 10 µM ([5]; 72 h, by day 3, read-out: mean reduction of EC growth compared to controls): ~10% | inhibition at 10 µM ([5]; 120 h, by day 5, read-out: reduction of EC growth compared to controls): 13.5% | inhibition at 10 µM ([5]; FIG. 8 experiment, 10 μM, read-out: maximal inhibitory effect on porcine EC proliferation): 22% | pIC50 (Swiss 3T3 cells): > 5.30 | blocking effect on fibroblast growth factor-dependent DNA synthesis [6]: over an order of magnitude weaker blocking effect | level of PDGF β-receptor protein present in the cells (PDGF β-receptor): without affecting the level | inhibition of PDGF-BB induced PDGF β-receptor tyrosine-phosphorylation (PDGF β-receptor; tyrphostin 10 μM, 60 min preincubation, PDGF-BB 100 ng/ml): completely inhibited | pIC50 [7]: > 6.00

COc1cc2ncc(-c3ccccc3)nc2cc1OC [AG1296]
inhibition of signalling of human PDGF α-receptor (human PDGF α-receptor): potently inhibits | inhibition of signalling of stem cell factor receptor (c-Kit) [8]: potently inhibits | effect on epidermal growth factor receptor autophosphorylation [2]: no effect | effect on activity of the kinase p60c-src(F527) immunoprecipitated from src-transformed NIH 3T3 cells (p60c-src(F527)): no effect | effect on DNA synthesis induced by vascular endothelial growth factor [9]: no effect | effect on autophosphorylation of KDR [10]: no effect | effect on DNA synthesis stimulated by insulin, by epidermal growth factor, or by a combination of both [4]: weak effects | pIC50 (Swiss 3T3 cells): > 5.30 | effect on src-transformed NIH 3T3 cells [11]: no effect | inhibition of signalling of human PDGF β-receptor (human PDGF β-receptor): potently inhibits | effect on transformed phenotype of sis-transfected NIH 3T3 cells [12]: reverses the transformed phenotype | blocking effect on fibroblast growth factor-dependent DNA synthesis [6]: over an order of magnitude weaker blocking effect | pIC50 [7]: > 6.00
